Test results published in patent US20230372290A1, “FORMULATIONS COMPRISING BOTANICAL EXTRACTS” (APEX BIOTECH RESEARCH PTY LTD, priority 2020, published 2023).
pIC50: −log10 of the molar value. Like-named read-outs stand apart in the source and are kept apart here.

Key:
SARS-CoV-2 (Vic 01) = assay: microbe, parasite or virus in culture; assay type: cell-based; details: for Microscopy at day 3: Vero cells, 1000 TCID50 SARS-CoV-2, cytopathic effect (CPE)
ACE2 protein = ACE2 protein by ELISA in cell lysate of CACO-2 cells; assay type: cell-based, human; details: 72 hours, 1 μM daily for three days, compared to UP-P, FIG. 3
Method: FIG. 3 illustrates the expression of ACE2 protein by ELISA in cell lysate of CACO-2 cells 72 hours following treatment with andrographolide (UP-A) and piceid (UP-P) (1 μM) daily for three days.
For ACE2 protein measurements, Caco-2 cells were scraped from each well in ice-cold RIPA buffer for ELISA assays. To determine the quantity of ACE2 in Caco-2 cells an Angiotensin Converting Enzyme 2 (ACE2) ELISA Kit (CusaBio, Wuhan, Hubei, China, catalogue number: CSB-E17204m) was performed on samples as per the manufacturers protocol. Briefly, each of the samples was loaded with Sample Diluent in duplicate wells. A standard curve was prepared from a Standard solution provided. 0, 6.25, 12.5, 25, 50, 100, 200 and 400 μg/mL of the standard was added to a series of wells in duplicate. The final volume of each standard well was made up to […] with the addition of Sample Diluent. […] of provided Biotin-antibody (1×) was added to each well and then after washing steps, […] of HRP-avidin antibody (1×). The plate was put on shake mode on a CLARIOstarPlus Multi-Mode Microplate Reader (BMG Labtech, Ortenberg, Germany) to ensure proper mixing before being scanned at Ex/Em=570/540 nm in an end point mode.

ACE2 mRNA = assay type: cell-based, African green monkey (Chlorocebus sp)
M^pro = M^pro (Severe acute respiratory syndrome coronavirus 2, UniProt P0DTD1); assay: Initial in silico and enzymology studies targeting M^pro

| SMILES | Microscopy at day 3 (SARS-CoV-2 (Vic 01); drug conc. 0.078125 μM) | Microscopy at day 3 (SARS-CoV-2 (Vic 01); drug conc. 0.15625 μM) | Microscopy at day 3 (SARS-CoV-2 (Vic 01); drug conc. 0.3125 μM) | Microscopy at day 3 (SARS-CoV-2 (Vic 01); drug conc. 0.625 μM) | Microscopy at day 3 (SARS-CoV-2 (Vic 01); drug conc. 1.25 μM) | Microscopy at day 3 (SARS-CoV-2 (Vic 01); drug conc. 2.5 μM) | Microscopy at day 3 (SARS-CoV-2 (Vic 01); drug conc. 5 μM) | Microscopy at day 3 (SARS-CoV-2 (Vic 01); drug conc. 10 μM) | Microscopy at day 3 (SARS-CoV-2 (Vic 01); drug conc. 20 μM) | Microscopy at day 3 (SARS-CoV-2 (Vic 01); drug conc. 40 μM) | ACE2 mRNA expression (ACE2 mRNA; Vero (AGM) cells, 48 h, FIG. 1) | other results |
| --- | --- | --- | --- | --- | --- | --- | --- | --- | --- | --- | --- | --- |
| C=C1CCC2[C@@](C)(CC[C@@H](O)[C@@]2(C)CO)C1C/C=C1/C(=O)OCC1O (stereo partly drawn) [Andrographis, 3-[2-[Decahydro-6-hydroxy-5-(hydroxymethyl)-5,8a-dimethyl-2-methylene-1-napthalenyl]ethylidene]dihydro-4-hydroxy-2(3H)-furanone] | CPE | CPE | CPE | CPE | CPE | CPE | CPE | CPE | CPE | Toxicity | significantly decreased | pIC50 (SARS-CoV-2 (Vic 01); Severe acute respiratory syndrome coronavirus 2, Vero, 72 h, read-out: IC50 calculated from virus titration (TCID50 data)): 5.49; antiviral activity against SARS-CoV-2 (SARS-CoV-2 (Vic 01); alone and in combination with piceid and ursolic acid): showed antiviral activity; ACE2 protein levels by ELISA (ACE2 protein): decreased; time of maximal effect on ACE2 mRNA expression (ACE2 mRNA; FIG. 2, decreasing at 48 hours and diminishing at 72 hours): 24 h; concentration below which loss of efficacy is observed (ACE2 mRNA) (ACE2 mRNA; FIG. 2 dose response): below 0.5 μM; concentration achieving the maximal response (ACE2 mRNA) (ACE2 mRNA; FIG. 2 dose response, no substantial increase in activity at higher doses): 1 µM; ACE2 mRNA expression (ACE2 mRNA; Vero (AGM) cells, 24 hours, FIG. 2): decreasing ACE2 mRNA expression; dose with the greatest effect on ACE2 mRNA expression (ACE2 mRNA; Vero (AGM) cells, 48 h, FIG. 1, lowest dose): 1 µM |
| C[C@H]1[C@H](C)CC[C@]2(C(=O)O)CC[C@]3(C)C(=CC[C@@H]4[C@@]5(C)CC[C@H](O)C(C)(C)[C@@H]5CC[C@]43C)[C@H]12 [Ursolic acid, (1S,2R,4aS,6aR,6aS,6bR,8aR,10S,12aR,14bS)-10-Hydroxy-1,2,6a,6b,9,9,12a-heptamethyl-2,3,4,5,6,6a,7,8,8a,10,11,12,13,14b-tetradecahydro-1H-picene-4a-carboxylic acid] | CPE | CPE | CPE | CPE | CPE | CPE | CPE | CPE | CPE | Toxicity | – | ACE2 mRNA expression (ACE2 mRNA): decreased ACE2 mRNA expression to a lesser extent in a dose dependent manner |
| OCC1O[C@@H](Oc2cc(O)cc(/C=C/c3ccc(O)cc3)c2)C(O)C(O)[C@@H]1O (stereo partly drawn) [Piceid, 2-[3-Hydroxy-5-[(E)-2-(4-hydroxyphenyl)ethenyl]phenoxy]-6-(hydroxymethyl)oxane-3,4,5-triol] | CPE | CPE | CPE | CPE | CPE | CPE | CPE | CPE | CPE | CPE | no discernible effect | candidate targeting M^pro (M^pro): promising candidate |
